Patent US20100264359A1, “BIOCIDAL MIXTURES” (LANXESS DEUTSCHLAND GMBH, priority 2007, published 2010)

Tests used:
Bacteria = assay: Preservation of a cooling lubricant emulsion, repeated weekly contamination with bacteria mixture; type: cell-based; conditions: maximum of 10 weeks; for Number of weeks in which the growth of microorganisms lay beneath the limiting values (bacteria <10^6 CFU/g): 0.05% (=500 ppm) BIT in cooling lubricant emulsion; for Number of weeks in which the growth of microorganisms remained below the limiting values (bacteria <10^6 CFU/g): 0.18% (=1800 ppm) OPP in cooling lubricant emulsion
Procedure: (§1) For this purpose, preserved samples of the cooling lubricant emulsion were repeatedly exposed in a weekly cycle to microbiological contamination with the following microorganisms:
(§2) The bacteria mixture was added in each case separately from the yeasts/molds. The maximum experimental time was 10 weeks (=10 contaminations/inoculation cycles), provided that the weekly cell count determination (in each case 7 days after the contamination) was kept within the following limiting values:
(§3) bacteria <10^6 CFU/g yeasts/molds <10^3-4 CFU/g
(§4) The experiment was terminated when said values were exceeded twice in succession.

Molds = assay: Preservation of a cooling lubricant emulsion, repeated weekly contamination with molds; type: cell-based, Acremonium strictum, Fusarium solani, Geotrichum candidum; conditions: maximum of 10 weeks; for Number of weeks in which the growth of microorganisms lay beneath the limiting values (molds <10^3-4 CFU/g): 0.05% (=500 ppm) BIT in cooling lubricant emulsion; for Number of weeks in which the growth of microorganisms remained below the limiting values (molds <10^3-4 CFU/g): 0.18% (=1800 ppm) OPP in cooling lubricant emulsion
Procedure: as §1, §2, §3, §4

Yeasts = assay: Preservation of a cooling lubricant emulsion, repeated weekly contamination with yeasts; type: cell-based, Rhodotorula rubra; conditions: maximum of 10 weeks; for Number of weeks in which the growth of microorganisms lay beneath the limiting values (yeasts <10^3-4 CFU/g): 0.05% (=500 ppm) BIT in cooling lubricant emulsion; for Number of weeks in which the growth of microorganisms remained below the limiting values (yeasts <10^3-4 CFU/g): 0.18% (=1800 ppm) OPP in cooling lubricant emulsion
Procedure: as §1, §2, §3, §4

| Compound | Number of weeks in which the growth of microorganisms lay beneath the limiting values (bacteria <10^6 CFU/g) (Bacteria) | Number of weeks in which the growth of microorganisms lay beneath the limiting values (bacteria <10^6 CFU/g) (Bacteria; listed as benzisothiazolinone) | Number of weeks in which the growth of microorganisms lay beneath the limiting values (molds <10^3-4 CFU/g) (Molds) | Number of weeks in which the growth of microorganisms lay beneath the limiting values (molds <10^3-4 CFU/g) (Molds; listed as benzisothiazolinone) | Number of weeks in which the growth of microorganisms lay beneath the limiting values (yeasts <10^3-4 CFU/g) (Yeasts) | Number of weeks in which the growth of microorganisms lay beneath the limiting values (yeasts <10^3-4 CFU/g) (Yeasts; listed as benzisothiazolinone) | Number of weeks in which the growth of microorganisms remained below the limiting values (bacteria <10^6 CFU/g) (Bacteria) | Number of weeks in which the growth of microorganisms remained below the limiting values (bacteria <10^6 CFU/g) (Bacteria; listed as o-phenylphenol) | Number of weeks in which the growth of microorganisms remained below the limiting values (molds <10^3-4 CFU/g) (Molds) | Number of weeks in which the growth of microorganisms remained below the limiting values (molds <10^3-4 CFU/g) (Molds; listed as o-phenylphenol) | Number of weeks in which the growth of microorganisms remained below the limiting values (yeasts <10^3-4 CFU/g) (Yeasts) | Number of weeks in which the growth of microorganisms remained below the limiting values (yeasts <10^3-4 CFU/g) (Yeasts; listed as o-phenylphenol) |
| --- | --- | --- | --- | --- | --- | --- | --- | --- | --- | --- | --- | --- |
| O=c1[nH]sc2ccccc12 [BIT, benzisothiazolinone] | 1 week weeks | 1 week (of a maximum of 10 weeks) | 1 week weeks | 1 week (of a maximum of 10 weeks) | 7 weeks | 7 weeks (of a maximum of 10 weeks) | – | – | – | – | – | – |
| Oc1ccccc1-c1ccccc1 [OPP, o-phenylphenol] | – | – | – | – | – | – | 2 weeks | 2 weeks (of a maximum of 10 weeks) | 10 weeks | 10 weeks (of a maximum of 10 weeks) | 10 weeks | 10 weeks (of a maximum of 10 weeks) |
